Experimental data as given in US8309324B2, “Promoters and proteins from Clostridium thermocellum and uses thereof” (University of Rochester, priority 2004, dated 2012).
Entries after “also recorded” stand apart in the source; their conditions may differ.

How the values were obtained:
CelR = target: T1, CelR (Thermobifida fusca, UniProt O87590); conditions: Spiridonov et al. 1999; cited from earlier work
T1 sequence (O87590 1-340): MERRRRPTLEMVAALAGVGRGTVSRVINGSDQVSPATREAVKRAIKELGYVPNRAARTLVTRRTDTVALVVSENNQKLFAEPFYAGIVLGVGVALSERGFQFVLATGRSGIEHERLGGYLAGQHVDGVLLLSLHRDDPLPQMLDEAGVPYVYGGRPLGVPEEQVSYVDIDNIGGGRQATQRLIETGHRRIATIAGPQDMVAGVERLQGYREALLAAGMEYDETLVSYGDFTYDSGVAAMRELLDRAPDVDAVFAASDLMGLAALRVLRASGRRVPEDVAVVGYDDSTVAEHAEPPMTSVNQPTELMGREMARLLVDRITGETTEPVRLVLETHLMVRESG

[1] = tested on: celC, glyR3, licA, orf4, manB and celT transcripts; test: RT-qPCR, inducibility of gene expression in C. thermocellum grown on different substrates; type: cell-based, Clostridium thermocellum; conditions: substrate 0.5%, time course of 50 hrs, compared with 1-3 linked sugars, FIG. 2
Protocol: FIG. 2 is a graph showing RT-qPCR results detailing the inducibility of expression of celC, glyR3 and licA when Clostridium thermocellum is grown on a 1-3 linked sugar: lichenan, laminarin and laminaribiose, compared to the 1-4 linked sugar, cellobiose. The bacterium was grown on the substrates for a time course of 50 hrs. Each 10 hours a sample was taken and the RNA harvested, DNase I digested, subjected to reverse transcription, and then qPCR. Columns left to right for each substrate represent relative transcription levels of celC, glyR3, licA orf4 manB and ceIT, respectively. The qPCR levels are all relative to the 16S transcript in C. thermocellum.
To test the effect of growth substrate on the inducibility of the expression of celC, glyR3, licA, orf4, manB, and celT genes in C. thermocellum, C. thermocellum was grown on substrates containing either a 1-4 linked sugar (cellobiose) or a 1-3 linked sugar (laminarin, lichenan, and laminaribiose). RT-qPCR was carried out on the cells to determine the level of 16S transcripts of the genes, as follows.
The bacterium was grown on the substrates for a time course of 50 hrs. Each 10 hrs a sample was taken. Cultures were centrifuged to collect the cells. Everything used from this point forward was RNase free. […] RNA concentration was measured using a Hitachi U-2000 spectrophotometer at 260/280 nm. […]

[2] = tested on: rGlyR3-celC promoter complex; test: EMSA, effect of sugars on the rGlyR3-celC promoter complex; type: binding, Clostridium thermocellum; conditions: for effect of sugar on the rGlyR3-celC promoter binding reaction: 15 mM sugar, 5 ng 100 bp celC promoter DNA, 0.5 ng rGlyR3, FIG. 17
Protocol: The EMSA analyzing biotin labeled DNA fragments. Lane 1, no protein and 5 ng DNA; Lanes 2-12 contain 5 ng 100 bp celC promoter DNA, 0.5 ng rGlyR3 and 15 mM of their respected sugars.
(§1) All EMSA experiments described herein were performed using a 4% polyacrylamide gel and Tris-Borate-EDTA buffer. EMSA reactions all contained: 500 ng poly (dI-dC), 1× Lightshift EMSA kit binding buffer (Pierce), 1× Lightshift loading dye (Pierce), optimized amounts of DNA probe, protein, and saccharides as specified in figure legends.
The binding of the rGlyR3 protein was inhibited by laminaribiose. Several sugars were tested to see if they could inhibit the rGlyR3-celC promoter complex.

celC transcription = test: In vitro transcription assay (RT-qPCR readout); type: biochemical, Clostridium thermocellum
Protocol: The baseline transcription mixture consists of: rNTPs, transcription buffer, 1 ug of 850 bp DNA containing celC and its promoter region, 10 ul C. thermocellum cell lysate (grown on cellobiose). After transcription, the RNA was harvested, DNase I digested, used in a Reverse Transcriptase reaction and then in qPCR.
A DNA template for in vitro transcription was created using the following primers (SEQ ID NO:30): Invt-F-[…]; (SEQ ID NO:31): Invt-R-CCAGTGGGCTTTCTGATGC) to amplify the 200 bp celC promoter along with 650 bp of the celC gene. PCR used a standard reaction for Extensor Hi-Fidelity Enzyme with genomic DNA as template. Each in vitro transcription assay contained: 10 μl C. thermocellum cell lysate (cellobiose grown culture), 2 μl RNase Out (Invitrogen, Carlsbad, Calif.), 1× RNA polymerase buffer, 1 μg of DNA template, 25 nM rNTP's, differing amounts of rGlyR3, differing amounts of laminaribiose, and DEPC water to a volume of 50 μl. The reactions were incubated at 60° C. for 50 minutes. After incubation the resulting RNA was isolated using the previously described Trizol method. The isolated RNA was subjected to DNase I digestion and a standard reverse transcription reaction as described above. Using the qPCR protocol already outlined, with primers for celC, it was possible to show the amount of transcript created for each reaction.

[3] = tested on: rGlyR3-celC promoter complex; test: EMSA rGlyR3 binding site competition assay; parameters: species or system Clostridium thermocellum; conditions: 100x unlabeled competitor, 0.5 ng rGlyR3, FIG. 16
Protocol: FIG. 16 is a gel showing the results of an EMSA rGlyR3 binding site competition assay. A gel shift competition assay was used to analyze specificity of binding and confirm the DNase I footprint results. All lanes contain biotin labeled 100 bp celC promoter fragment containing the binding site. Lane 1, no protein; Lane 2, 0.5 ng rGlyR3; Lane 3, 0.5 ng rGlyR3 and 100× unlabeled 18 bp binding site; Lane 4, 0.5 ng rGlyR3 and 100 × control fragment (18 bp piece of original 100 bp region, contains no part of putative binding site).
as §1
The 18 bp sequence corresponds to (SEQ ID NO:36): AATGAACGC GCGTACATT.

[4] = tested on: 200 bp fragment of the celS structure gene; test: EMSA, rGlyR3 with celS structure gene fragment as probe; type: binding, Clostridium thermocellum; conditions: FIG. 11, lanes 5 and 6
Protocol: as §1
(§2) The dissociation constant was determined as the concentration of GlyR3 needed to shift 50% of the celC promoter region in the EMSA.

celC promoter region = test: EMSA, binding of rGlyR3 to the celC promoter region; parameters: species or system Clostridium thermocellum
Protocol: Gel Shift, or Band Shift Assay, or Electrophoretic Mobility Shift Assay (EMSA) is a technique for studying gene regulation and determining protein:DNA interactions. The assay is based on the observation that complexes of protein and DNA migrate through a non-denaturing polyacrylamide gel more slowly than free DNA fragments or double-stranded oligonucleotides. The gel shift assay is carried out by first incubating a protein(s) (such as nuclear or cell extract) with a 32^P end-labeled DNA fragment containing the putative protein binding site. The reaction products are then analyzed on a non-denaturing polyacrylamide gel. The specificity of the DNA-binding protein for the putative binding site is established by competition experiments using DNA fragments or oligonucleotides containing a binding site for the protein of interest or other unrelated DNA sequences.
as §1
EMSA gels were electroblotted onto Biodyne B membrane (Pall Corporation). Signal development was accomplished using the Lightshift Chemiluminescent EMSA kit protocol (Pierce). Kodak Biomax film captured the luminescence for viewing.
Probes for EMSA were created using PCR with Thermostart Taq (ABgene) as a polymerase. The standard Thermostart protocol was used with varying extension times (1 kb/minute rule always followed) and different annealing temperatures (57° C.-62° C.). Primers were synthesized with a 5′ biotin label by Invitrogen (Carlsbad, Calif.). Primers (5′-3′) used: […]
For probes that contained just the 18 bp binding site, complementary DNA fragments were synthesized and annealed by heating to 94 C and then cooling:
as §2

Molecule: O=C[C@H](O)[C@@H](O)[C@H](O[C@@H]1O[C@H](CO)[C@@H](O)[C@H](O)[C@H]1O)[C@H](O)CO [cellobiose]
- concentration inhibiting binding of CelR to its target DNA sequence (CelR): 0.2 to 0.5 mM
- transcript level of the gene cluster relative to 16S transcript [1]: less of the transcript containing the genes is produced

Molecule: OC[C@H]1O[C@@H](OC[C@H]2OC(O)[C@H](O)[C@@H](O)[C@@H]2O)[C@H](O)[C@@H](O)[C@@H]1O (some centres unmarked) [gentibiose]
- effect of sugar on the rGlyR3-celC promoter binding reaction [2]: no effect

Molecule: OC[C@H]1O[C@@H](O[C@H]2[C@H](O)[C@@H](O)C(O)O[C@@H]2CO)[C@H](O)[C@@H](O)[C@H]1O (some centres unmarked) [lactose]
- effect of sugar on the rGlyR3-celC promoter binding reaction [2]: no effect

Molecule: OC[C@H]1O[C@@H](O[C@H]2[C@H](O)[C@@H](CO)OC(O)[C@@H]2O)[C@H](O)[C@@H](O)[C@@H]1O (some centres unmarked) [laminaribiose]
- effect of sugar on the rGlyR3-celC promoter binding reaction [2]: severely reduced the formation of the DNA-protein complex
- effect on binding of GlyR3 to the 18 bp binding site ([2]; FIG. 15): inhibited
- effect of laminaribiose on GlyR3-100 bp celC promoter interaction ([2]; GlyR3 0.5 ng, DNA 5 ng, increasing laminaribiose, FIG. 9): inhibited; also recorded: DNA-protein complex diminished as the concentration of laminaribiose increased
- effect on celC transcription in presence of GlyR3 (celC transcription; 5 mM laminaribiose in addition to 400 ng GlyR3, FIG. 3): transcription returned to baseline levels or greater

Molecule: OC[C@H]1O[C@H](O[C@H]2[C@H](O)[C@@H](O)[C@H](O)O[C@@H]2CO)[C@H](O)[C@@H](O)[C@@H]1O [maltose]
- effect of sugar on the rGlyR3-celC promoter binding reaction [2]: no effect

Molecule: OC[C@H]1O[C@@](CO)(O[C@H]2O[C@H](CO)[C@@H](O)[C@H](O)[C@H]2O)[C@@H](O)[C@@H]1O [sucrose]
- effect of sugar on the rGlyR3-celC promoter binding reaction [2]: no effect

Molecule: unlabeled 18 bp binding site: 18 bp near perfect palindromic sequence of the celC promoter, SEQ ID NO:36: AATGAACGC GCGTACATT (DNA AATGAACGCGCGTACATT; listed as DNA, chemistry not given here)
- competition for the shifted band of the 100 bp celC promoter fragment [3]: able to compete out the shifted band

B1: GlyR3: C. thermocellum LacI-like repressor protein, amino acid sequence SEQ ID NO:3; rGlyR3 is the recombinant form expressed in E. coli (protein)
chain: MTSEEIAKLCGVSRATVSRVINNSPNVKEETRQKILAVIKEKNYVPIAPARRLAGIDSNIIGLFVLDIDISESKSRVSESTYFSRLINLIIDQANNFGFQVLVSIITSQKQLSEIRNLFMSRTIFSGIFIGAFNDEIQLDDDIIMQHPTIIIDRQSERMVKKPNRLVVNLDNFEGAYNATQFLIKLGHTRIGHISGDLRKLSGIERYEGYKKALEDAGLGFDKNLVREGNFLDDSGYRLAREILKENVTAIFCANDVMAISAIKAIKETGLSVPDDISVIGFDNTAIGNYIMPALTTVNAPLEHIAEACIESLKYFCEHKHFKQKEIRVKTDLIIRDSTKRALEF
modifications: C. thermocellum
notes: rGlyR3 is the recombinant form expressed in E. coli
- binding to 200 bp fragment of the celS structure gene [4]: does not bind
- effect on transcription of the celC gene in vitro (celC transcription; 400 ng GlyR3, FIG. 3): can inhibit transcription
- binding to first and second halves of the celC promoter (band shift) (celC promoter region; 0.5 ng rGlyR3, 5 ng of each probe, FIG. 11): creates a shifted band with both probes
- binding to the 200 bp celC promoter region (celC promoter region; 1 ng protein, 5 ng DNA, FIG. 12): binds
- binding to a control fragment of 18 bp located within the celC promoter (celC promoter region; FIG. 13): no binding
- binding to the 18 bp DNA fragment (binding site) (celC promoter region; FIG. 13): dose dependent binding
